Laboratory results reported in patent US20060127317A1, “Nasallly applicable pharmaceutical preparation and the production thereof” (priority 2002, published 2006).

Test system: ciliated epithelium of the trachea of chicken embryos
Assay: standard test for examining ciliary function (ciliary frequency of tracheal ciliated epithelium tissue pieces)
Assay type: cell-based
Conditions: orienting tests; compared with results of table 2
Excerpt: In a standard test for examining ciliary function, a conventional preparation for nasal administration having a phosphate/citrate buffer and benzalkonium chloride as preservative was compared in each case with a preparation of the invention having malic acid as buffer and benzalkonium chloride as preservative.
Pieces of tissue from ciliated epithelium of the trachea of chicken embryos are employed in the tests on which the comparison is based, reference being made for details of the tests to S. G. Romejn et al., Int. J. of Pharmac. 135 (1996) 137-145 and van De Donk et al., Rhinology, 20 (1982) 81-87.
The self-cleaning of the nasal mucosa is then simulated by washing out the respective solutions and adding Ringer's solution for 45 min.
After exposure for 15 min, the ciliary frequency is reduced distinctly less by the exemplary solutions with malic acid buffer than by the reference solutions. The self-cleaning of the nasal mucosa is then simulated by washing out the test solutions and adding Ringer's solution for 45 min. A distinctly better recovery of the ciliary beating force, which extends to more than ¾ of the initial beating force (of 100%), is achieved thereby with the exemplary solutions with malic acid buffer. […]

Question: How did the “reduction in ciliary activity and regeneration of the cilia (result in words)” value turn out when `O=C(O)c1cc(=O)c2c(OCC(O)COc3cccc4oc(C(=O)O)cc(=O)c34)cccc2o1` [cromoglicic acid] was run?
Answer: The value was “similar”.

Question: calcitonin [calcitonin (from salmon)] was tested. Which “reduction in ciliary activity and regeneration of the cilia (result in words)” value did it give?
Answer: The value was “similar”.
